Consider 1 compound from patent US20190369111A1, “MOLECULAR KINETICS EVALUATION METHOD AND SCREENING METHOD” (Tokyo University of Science Foundation, priority 2016, published 2019).

The target in this assay is endogenous wild-type p53 protein (Homo sapiens, UniProt P04637). In words: Degradation of endogenous wild-type p53 protein in HCT116 cells, Western blot analysis. In kind it is cell-based. More on the design: an endogenous wild-type p53 protein and MDM2 protein in HCT116 cells (human large intestine cancer cells); endogenous in cells; host or cells: HCT116 cells. The note with it: 48 hours after addition. The procedure: HCT116 cells were seeded in a 24-well plate at a cell density of 8×10^4 cells/well, and then cultured under conditions of 37° C. and 5 vol % CO2 for 16 hours.
endogenous wild-type p53 protein, sequence (P04637 whole entry): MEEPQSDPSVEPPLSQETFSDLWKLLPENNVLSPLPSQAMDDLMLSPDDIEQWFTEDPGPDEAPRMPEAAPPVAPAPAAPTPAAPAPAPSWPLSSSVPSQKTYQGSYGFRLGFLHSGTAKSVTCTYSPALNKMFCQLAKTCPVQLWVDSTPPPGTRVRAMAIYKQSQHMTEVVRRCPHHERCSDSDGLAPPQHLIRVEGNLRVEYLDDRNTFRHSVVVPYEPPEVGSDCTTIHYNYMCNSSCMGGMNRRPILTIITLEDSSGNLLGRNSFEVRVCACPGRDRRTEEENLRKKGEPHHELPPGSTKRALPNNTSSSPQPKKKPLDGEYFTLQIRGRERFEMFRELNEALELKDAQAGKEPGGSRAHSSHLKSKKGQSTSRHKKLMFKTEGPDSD
After 16 hours from cell seeding, TIBC-CANDDY_MLN or TIBC was added to HCT116 cells as follows. As a medium, a serum-free medium (37° C.) in which 1 mass % L-glutamine solution (Sigma-Aldrich) was added to D-MEM (high D-glucose, phenol red, sodium pyruvate (Wako Pure Chemical Industries, Ltd.)) was used. It is noted that the L-glutamine solution was added immediately before use. A DMSO solution containing TIBC-CANDDY_MLN or TIBC was mixed with the medium so that the concentration of DMSO was 1 vol %, and added to each well at 500 μL/well, and cultured under conditions of 37° C. and 5 vol % CO2. As a control, DMSO was used.
The medium was removed 48 hours after addition of TIBC-CANDDY_MLN or TIBC, and then PBS was added to wash the cells. […]
After electrophoresis, proteins were transferred to a PVDF membrane (Immobion™-P, Millipore) under conditions of 100 V and 2 hours using a tank-type blotting device and a transfer buffer (25 mM Tris-HCl, 195 mM glycine, 0.01% SDS, 15% methanol). […] Subsequently, the membrane was treated with a chemiluminescence reagent Immobilon™ Western (Millipore), and then chemiluminescence was detected using a lumino image analyzer LAS-3000 (FUJIFILM Corporation).
(Immunoblotting shows a protein as a band on a membrane.)

Take `CC(C)C[C@H](NC(=O)CNC(=O)c1cc(Cl)ccc1Cl)C(=O)NCCCCCCC(=O)Nc1ccc(C(=O)/C=C/c2ccc(I)cc2)cc1` [TIBC-CANDDY_MLN]: the “amount of endogenous wild-type p53 protein” value was “reduced”.
